The values that follow come from patent publication US12180207B2 (ARRAY BIOPHARMA INC., priority 2018, dated 2024).

For test [1], the target named is T1, HEK-293 cells transfected with dox-inducible human wild type FGFR3 (Homo sapiens (Human), UniProt P22607). As to the kind of experiment: FGFR3 pFGFR cell assay (ELISA). Format: cell-based. The note with it: HEK-293 dox-inducible FGFR3, 1 hour compound, 100 ng/ml FGF-acidic. As for the experimental part: FGFR3 pFGFR Cell Assay: • HEK-293 cells transfected with dox-inducible human wild type FGFR3 (SEQ ID NO: 5) were plated in a collagen or poly-D-lysine coated 96 well flat bottom plates at 4×10^5 cells/well in complete DMEM medium containing 10% FBS and 1 μg/ml doxycycline and allowed to attach for 24 h at 37° C., 5% CO2. Cells were treated with compound using 1:3 serial dilutions with a top final concentration of 5 μM. Compound was incubated on cells for 1 hour at 37° C., 5% CO2. Cells were then stimulated with a final concentration of 100 ng/ml human FGF-acidic for 5 minutes at 37° C., 5% CO2. Medium was removed and cells were lysed with lysis buffer containing phosphatase and protease inhibitors. Phospho FGFR3 was measured by ELISA (R&D Systems cat DYC2719). The ELISA captures total FGFR3 and detects total phospho tyrosine. Optical density was measured for each well using a Versamax reader at a wavelength of 450 nm. 100 POC was determined using no test compounds and 0 POC was determined using a control compound. The POC values were fit to a 4-parameter logistic curve as a function of the concentration of the compound, and the IC50 value is the point where the curve crosses 50 POC.

In test [2] the target is HEK-293 cells transfected with dox-inducible human wild type FGFR1 (Homo sapiens (Human), UniProt P11362). Briefly: FGFR1 pERK cell assay. Format: cell-based. Conditions: HEK-293 dox-inducible FGFR1, 1 hour compound, 100 ng/ml FGF-acidic; maximum concentration 5 μM. As for the experimental part: (§1) FGFR1 pERK Cell Assay: • HEK-293 cells transfected with doxycycline(dox)-inducible human wild type FGFR1 (SEQ ID NO: 1) were plated in a collagen or poly-D-lysine coated 96 well flat bottom plates at 4×10^5 cells/well in complete Dulbecco's Modified Eagle Medium (DMEM) containing 10% FBS and 1 μg/ml doxycycline and allowed to attach for 24 h at 37° C., 5% CO2. Cells were treated with compound using 1:3 serial dilutions with a maximum final concentration of 5 μM. Compound was incubated on cells for 1 hour at 37° C., 5% CO2. Cells were then stimulated with a final concentration of 100 ng/ml human FGF-acidic (R&D Systems Cat number 232-FA/CF) for 5 minutes at 37° C., 5% CO2. Medium was removed, and cells were lysed with lysis buffer containing phosphatase and protease inhibitors. Phospho ERK1/2 was measured using the Meso Scale Discovery sandwich assay (Meso Scale Discovery cat. no. K151DWD). The assay captures phospho ERK1/2 and detects with a sulfo-tagged total ERK1/2 antibody. The chemiluminescent signal was read on the Sector Imager Plate reader. 100 POC was determined using no test compound and 0 POC was determined using a control compound. The POC values were fit to a 4-parameter logistic curve as a function of the concentration of the compound, and the IC50 value is the point where the curve crosses 50 POC.

Test [3] concerns the target T1, HEK-293 cells transfected with dox-inducible human wild type FGFR3. Briefly: FGFR3 pERK cell assay. The note with it: HEK-293 dox-inducible FGFR3, 1 hour compound, 100 ng/ml FGF-acidic; maximum concentration 5 μM. Format: cell-based. The protocol: as §1, with “FGFR3 pERK” for “FGFR1 pERK”, “with dox-inducible” for “with doxycycline(dox)-inducible”, “type FGFR3” for “type FGFR1”, “NO: 5)” for “NO: 1)”, “complete DMEM medium” for “complete Dulbecco's Modified Eagle Medium (DMEM)”, “test compounds” for “test compound”

Test [4] deals with recombinant human FGFR3 (amino acids R397-T806) (Homo sapiens (Human), UniProt P22607). As to the kind of experiment: FGFR3 enzyme activity assay (LanthaScreen TR-FRET). The class given is biochemical. Conditions: 25 μM ATP, 10 min incubation at 22° C., average of multiple determinations if made, read-out: FGFR3 Enz FRET IC50. Put shortly: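 GST-HIS6-tagged human FGFR3 (R397-T806) was reacted with 100 nM Alexa Fluor 647-Poly-GT substrate and 25 μM ATP plus compound in HEPES/MgCl2/Triton buffer, pH 7.5, 2% DMSO, for 10 min at 22 °C.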

In test [5] the target is phosphorylated FGFR3 (SEQ ID NO: 5, amino acids 449 to 759) (Homo sapiens (Human), UniProt P22607). Briefly: FGFR enzyme binding assay (HTRF tracer displacement), FGFR3. The note with it: 5 nM phosphorylated FGFR3, average of multiple determinations if made. The procedure, abridged:
(§2)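 Kinase and tracer were incubated with compound for 60 minutes at 22° C. Tracer displacement was then measured by HTRF, and results were expressed as POC with 1 μM control inhibitor defining full displacement.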

Test [6] deals with recombinant human FGFR2 cytoplasmic domain (amino acids 403-822) (Homo sapiens (Human), UniProt P21802). As to the kind of experiment: FGFR2 enzyme activity assay (LanthaScreen TR-FRET). Format: biochemical. The note with it: 15 μM ATP, 20 min incubation at 22° C., average of multiple determinations if made, read-out: FGFR2 Enz FRET IC50. Put shortly:
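Substrate phosphorylation was read by TR-FRET using Eu-PY20 antibody (60 min, 22 °C) after a 20 min, 22 °C reaction. The reaction used 15 μM ATP, 100 nM fluorescent poly-GT peptide and His-tagged FGFR2 403-822 ([…]) at pH 7.5 with 2% DMSO.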

The target in test [7] is FGFR3 (SEQ ID NO: 5, amino acids 449-759) (Homo sapiens (Human), UniProt P22607). As to the kind of experiment: LC/MS FGFR3 kobs assay (covalent protein modification). Conditions: 500 nM FGFR3, 3 μM compound. Format: binding. The procedure, abridged:
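Samples are acid-quenched at set times and read by Q-TOF mass spectrometry. kobs is obtained by fitting DMSO-normalized percent unmodified protein to an exponential decay model.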

The target of test [8] is dephosphorylated FGFR1 (SEQ ID NO: 1, amino acids 458 to 765) (Homo sapiens (Human), UniProt P11362). As to the kind of experiment: FGFR enzyme binding assay (HTRF tracer displacement), FGFR1. The note with it: 5 nM dephosphorylated FGFR1, average of multiple determinations if made. Put shortly: as §2
For test [9], the target named is recombinant human FGFR1 catalytic domain (amino acids 308-731) (Homo sapiens (Human), UniProt P11362). As to the kind of experiment: FGFR1 enzyme activity assay (LanthaScreen TR-FRET). Format: biochemical. The note with it: 20 min incubation at 22° C., average of multiple determinations if made, read-out: FGFR1 Enz FRET IC50. The procedure, abridged: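 His-tagged FGFR1 kinase domain with 100 nM Alexa Fluor 647-poly-GT peptide and ATP in pH 7.5 HEPES/MgCl2 buffer with 2% DMSO, 20 min at 22 °C. Quenched with EDTA plus 2 nM Eu-PY20 antibody and read after 60 min. IC50 comes from a 4-parameter fit of percent of control.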

Test [10] deals with FGFR1 (SEQ ID NO: 1, amino acids 458-765) (Homo sapiens (Human), UniProt P11362). Briefly: LC/MS FGFR1 kobs assay (covalent protein modification). The class given is binding. The note with it: 500 nM FGFR1, 3 μM compound. The procedure, abridged: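 Covalent labeling of FGFR1 kinase domain (aa 458-765) tracked over time by intact-protein LC/MS after formic acid quench. kobs derived by fitting DMSO-normalized percent unmodified FGFR1 to an exponential decay model.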
FGFR1 (SEQ ID NO: 1, amino acids 458-765), sequence (P11362 458-765): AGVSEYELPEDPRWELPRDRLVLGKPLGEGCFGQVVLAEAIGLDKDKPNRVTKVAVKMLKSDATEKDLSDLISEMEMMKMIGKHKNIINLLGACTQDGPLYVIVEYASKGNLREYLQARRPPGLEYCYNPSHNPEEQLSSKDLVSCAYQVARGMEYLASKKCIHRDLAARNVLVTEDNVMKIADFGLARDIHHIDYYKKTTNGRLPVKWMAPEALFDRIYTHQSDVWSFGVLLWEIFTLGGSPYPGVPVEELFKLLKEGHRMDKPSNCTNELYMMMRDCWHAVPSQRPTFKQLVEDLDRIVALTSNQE

T1 sequence (P22607 23-806): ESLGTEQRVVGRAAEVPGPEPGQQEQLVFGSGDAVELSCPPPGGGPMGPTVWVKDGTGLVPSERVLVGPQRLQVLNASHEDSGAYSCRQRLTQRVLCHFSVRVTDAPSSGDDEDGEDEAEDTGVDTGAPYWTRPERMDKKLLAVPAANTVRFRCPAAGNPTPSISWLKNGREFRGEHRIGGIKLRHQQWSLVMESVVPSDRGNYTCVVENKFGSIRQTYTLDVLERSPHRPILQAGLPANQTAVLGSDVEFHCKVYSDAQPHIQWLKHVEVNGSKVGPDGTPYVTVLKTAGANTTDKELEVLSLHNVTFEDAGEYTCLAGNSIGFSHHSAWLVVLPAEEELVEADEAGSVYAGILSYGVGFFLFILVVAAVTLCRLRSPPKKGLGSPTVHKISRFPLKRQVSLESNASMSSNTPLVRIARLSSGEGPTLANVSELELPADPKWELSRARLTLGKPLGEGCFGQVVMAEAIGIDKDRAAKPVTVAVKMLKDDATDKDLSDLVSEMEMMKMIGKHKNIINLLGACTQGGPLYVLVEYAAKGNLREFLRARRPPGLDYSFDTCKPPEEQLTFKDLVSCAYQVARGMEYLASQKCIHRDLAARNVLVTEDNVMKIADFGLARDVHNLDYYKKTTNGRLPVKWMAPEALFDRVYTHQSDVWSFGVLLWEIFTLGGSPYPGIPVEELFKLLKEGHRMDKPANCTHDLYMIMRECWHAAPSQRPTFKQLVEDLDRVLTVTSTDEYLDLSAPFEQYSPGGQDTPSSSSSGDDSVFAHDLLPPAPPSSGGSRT
HEK-293 cells transfected with dox-inducible human wild type FGFR1, sequence (P11362 22-822): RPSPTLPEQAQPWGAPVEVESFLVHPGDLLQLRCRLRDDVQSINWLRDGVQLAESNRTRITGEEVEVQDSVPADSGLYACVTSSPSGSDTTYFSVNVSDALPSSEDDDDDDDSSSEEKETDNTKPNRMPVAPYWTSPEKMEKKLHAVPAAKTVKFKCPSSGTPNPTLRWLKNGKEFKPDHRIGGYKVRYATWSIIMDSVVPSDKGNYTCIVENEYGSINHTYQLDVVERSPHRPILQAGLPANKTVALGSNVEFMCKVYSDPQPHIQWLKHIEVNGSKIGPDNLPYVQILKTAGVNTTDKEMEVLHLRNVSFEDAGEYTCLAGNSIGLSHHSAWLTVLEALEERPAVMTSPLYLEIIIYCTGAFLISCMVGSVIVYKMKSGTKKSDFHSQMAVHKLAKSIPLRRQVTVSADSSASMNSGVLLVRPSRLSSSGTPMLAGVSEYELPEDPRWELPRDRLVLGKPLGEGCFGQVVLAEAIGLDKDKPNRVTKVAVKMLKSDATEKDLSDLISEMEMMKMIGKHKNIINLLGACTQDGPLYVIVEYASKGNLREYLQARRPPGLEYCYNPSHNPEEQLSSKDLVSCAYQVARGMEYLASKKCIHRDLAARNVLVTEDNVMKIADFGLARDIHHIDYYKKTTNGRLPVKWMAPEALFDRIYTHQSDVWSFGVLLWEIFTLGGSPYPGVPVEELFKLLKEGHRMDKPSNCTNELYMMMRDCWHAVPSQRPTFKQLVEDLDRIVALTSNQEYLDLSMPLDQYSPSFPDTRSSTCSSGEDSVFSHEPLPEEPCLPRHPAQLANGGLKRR
recombinant human FGFR2 cytoplasmic domain (amino acids 403-822), sequence (P21802 402-821): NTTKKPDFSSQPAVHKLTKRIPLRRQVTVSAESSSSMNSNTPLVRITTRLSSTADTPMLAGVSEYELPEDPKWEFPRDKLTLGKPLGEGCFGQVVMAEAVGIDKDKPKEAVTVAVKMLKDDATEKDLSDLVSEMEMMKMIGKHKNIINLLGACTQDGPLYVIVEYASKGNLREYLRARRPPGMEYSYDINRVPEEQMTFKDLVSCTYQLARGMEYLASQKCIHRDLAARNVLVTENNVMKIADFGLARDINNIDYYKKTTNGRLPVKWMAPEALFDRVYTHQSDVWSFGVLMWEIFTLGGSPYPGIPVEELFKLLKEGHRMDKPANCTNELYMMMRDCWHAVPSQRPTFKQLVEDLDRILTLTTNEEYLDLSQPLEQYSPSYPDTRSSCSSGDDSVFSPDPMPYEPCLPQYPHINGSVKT
recombinant human FGFR3 (amino acids R397-T806), sequence (P22607 397-806): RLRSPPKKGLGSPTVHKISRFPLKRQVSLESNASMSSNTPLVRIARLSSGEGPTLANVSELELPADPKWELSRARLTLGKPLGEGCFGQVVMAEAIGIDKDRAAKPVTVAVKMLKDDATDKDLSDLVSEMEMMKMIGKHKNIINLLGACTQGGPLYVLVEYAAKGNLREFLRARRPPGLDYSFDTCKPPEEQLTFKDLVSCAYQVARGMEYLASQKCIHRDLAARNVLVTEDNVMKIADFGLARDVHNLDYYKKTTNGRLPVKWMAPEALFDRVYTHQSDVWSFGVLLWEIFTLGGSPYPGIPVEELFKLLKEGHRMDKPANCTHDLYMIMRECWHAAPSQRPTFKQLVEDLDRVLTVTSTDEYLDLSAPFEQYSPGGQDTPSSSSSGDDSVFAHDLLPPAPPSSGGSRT
phosphorylated FGFR3 (SEQ ID NO: 5, amino acids 449 to 759), sequence (P22607 449-759): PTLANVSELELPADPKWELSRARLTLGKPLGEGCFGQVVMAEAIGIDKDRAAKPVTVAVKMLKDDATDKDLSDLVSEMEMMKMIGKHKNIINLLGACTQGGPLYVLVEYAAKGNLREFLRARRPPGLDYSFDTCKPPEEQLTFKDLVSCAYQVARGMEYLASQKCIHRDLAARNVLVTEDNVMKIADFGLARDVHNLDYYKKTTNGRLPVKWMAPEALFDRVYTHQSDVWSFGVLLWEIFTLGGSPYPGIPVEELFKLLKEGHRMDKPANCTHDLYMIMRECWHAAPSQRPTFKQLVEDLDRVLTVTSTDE
FGFR3 (SEQ ID NO: 5, amino acids 449-759), sequence (P22607 449-759): as above
dephosphorylated FGFR1 (SEQ ID NO: 1, amino acids 458 to 765), sequence (P11362 458-765): as the sequence (P11362 458-765) above
recombinant human FGFR1 catalytic domain (amino acids 308-731), sequence (P11362 other isoform, or with tags, fused parts or gaps): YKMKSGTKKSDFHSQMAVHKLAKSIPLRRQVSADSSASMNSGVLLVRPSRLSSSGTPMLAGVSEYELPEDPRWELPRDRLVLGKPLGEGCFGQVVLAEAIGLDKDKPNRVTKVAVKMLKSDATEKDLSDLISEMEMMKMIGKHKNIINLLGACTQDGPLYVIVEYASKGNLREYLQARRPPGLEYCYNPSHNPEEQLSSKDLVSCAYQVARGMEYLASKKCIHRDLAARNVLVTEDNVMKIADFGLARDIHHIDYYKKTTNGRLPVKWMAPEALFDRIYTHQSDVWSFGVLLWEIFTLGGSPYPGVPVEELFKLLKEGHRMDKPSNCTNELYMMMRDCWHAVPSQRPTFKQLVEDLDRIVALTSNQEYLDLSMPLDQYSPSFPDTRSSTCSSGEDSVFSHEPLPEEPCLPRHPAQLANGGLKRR

Take `C=CC(=O)Nc1ccc(S(=O)(=O)N2CCC(n3cc(-c4cc(OC)c5c(C#N)cnn5c4)cn3)CC2)cc1` [Example 49, N-(4-((4-(4-(3-cyano-4-methoxypyrazolo[1,5-a]pyridin-6-yl)-1H-pyrazol-1-yl)piperidin-1-yl)sulfonyl)phenyl)acryl-amide (2,2,2-trifluoroacetate)]: in [1], inhibition was half-maximal at 20 nM (IC50).
In turn, `C=CS(=O)(=O)N[C@H]1C[C@H](C(=O)N2CCC(n3cc(-c4cc(OC)c5c(C#N)cnn5c4)cn3)CC2)C1` [Example 194, N-((1r,3r)-3-(4-(4-(3-cyano-4-methoxypyrazolo[1,5-a]pyridin-6-yl)-1H-pyrazol-1-yl)piperidine-1-carbonyl)cyclobutyl) ethenesulfonamide] returned an IC50 in [2] of 401 nM.
`C=CS(=O)(=O)N[C@H]1CC[C@H](C(=O)N2CCC(n3cc(-c4cc(OC)c5c(C#N)cnn5c4)cn3)CC2)CC1` [Example 187, N-((1r,4r)-4-(4-(4-(3-cyano-4-methoxypyrazolo[1,5-a]pyridin-6-yl)-1H-pyrazol-1-yl)piperidine-1-carbonyl)cyclohexyl) ethenesulfonamide] gave an IC50 in [1] of 74 nM.
On to `C=C(F)C(=O)N1CC(C(=O)N2CCC(n3cc(-c4cc(OC)c5c(C#N)cnn5c4)cn3)CC2)C1` [Example 140, 6-(1-(1-(1-(2-fluoroacryloyl)azet-idine-3-carbonyl)piperidin-4-yl)-1H-pyrazol-4-yl)-4-methoxypyrazolo [1,5-a]pyridine-3-carbonitrile], for which the concentration for half-maximal inhibition (IC50) came out at 105 nM in test [3] and 206 nM in test [2].
In turn, `COc1cc(-c2cnn(C3CN(CC4CN(C(=O)/C=C/CN(C)C)C4)C3)c2)cn2ncc(C#N)c12` [Example 148] registered a 50% inhibitory concentration (IC50) in [1] of 351 nM.
For `C=CC(=O)N1CCC(C(=O)N2CCC(n3cc(-c4cc(OC)c5c(C#N)cnn5c4)cn3)CC2)CC1` [Example 12, 6-(1-(1-(1-acryloylpiperidine-4-carbonyl)piperidin-4-yl)-1H-pyrazol-4-yl)-4-methoxypyrazolo[1,5-a]pyridine-3-carbonitrile], the IC50 in [4] came to 3 nM; in test [5] it was 32 nM; in [6], 3 nM; in test [1], 242 nM. In test [7], the “FGFR3 Enz kobs” value came out at 0.00231 min⁻¹.
With `COc1cc(-c2cnn(C3CN(C(=O)C4CN(C(=O)/C=C/CN(C)C)C4)C3)c2)cn2ncc(C#N)c12` [Example 150], the IC50 in test [1] is 2320 nM.
In test [2], `C=CS(=O)(=O)N[C@H]1C[C@@H](C(=O)N2CCC(n3cc(-c4cc(OC)c5c(C#N)cnn5c4)cn3)CC2)C1` [Example 193, N-((1s,3s)-3-(4-(4-(3-cyano-4-methoxypyrazolo[1,5-a]pyridin-6-yl)-1H-pyrazol-1-yl)piperidine-1-carbonyl)cyclobutyl) ethenesulfonamide] came in with an IC50 of 328 nM.
As to `C=CS(=O)(=O)N1CC[C@@H](C(=O)N2CCC(n3cc(-c4cc(OC)c5c(C#N)cnn5c4)cn3)CC2)C1` [Example 185], the IC50 in test [4] came out at 3 nM; in test [5] it was 4 nM; in [6], 5 nM; in test [1] it was 12 nM. Moreover, the “FGFR3 Enz kobs” value in test [7] was determined as 0.06081 min⁻¹.
For the compound `C=CS(=O)(=O)Nc1ccc(C(=O)N2CCC(n3cc(-c4cc(OC)c5c(C#N)cnn5c4)cn3)CC2)cc1` [Example 196, N-(4-(4-(4-(3-cyano-4-methoxypyrazolo[1,5-a]pyridin-6-yl)-1H-pyrazol-1-yl)piperidine-1-carbonyl)phenyl)ethenesulfonamide], in test [1], the IC50 is 26 nM.
Turning to `C=CC(=O)N1CCC(C(=O)N2CCN(c3ccc(-c4cc(OC)c5c(C#N)cnn5c4)cn3)CC2)CC1` [Example 109, 6-(6-(4-(1-acryloylpiperidine-4-carbonyl)piperazin-1-yl)pyridin-3-yl)-4-methoxypyrazolo[1,5-a]pyridine-3-carbonitrile], the IC50 in test [4] turned out to be 6 nM; in test [5], 8 nM; in [8], 56 nM; in test [6], 4 nM; in [9], 12 nM. In addition, in test [10], the “FGFR1 Enz kobs” value stood at 0.0006 min⁻¹. Besides, the “FGFR3 Enz kobs” value in test [7] came to 0.00352 min⁻¹.
